Experimental data: patent publication US10280173B2, “Ibrutinib solid forms and production process therefor” (WAVELENGTH ENTERPRISES LTD., priority 2014, dated 2019)

Assays:
[1] = Hygroscopicity test according to the European Pharmacopoeia, 5.11; format: physicochemical; conditions: 80±2% relative humidity, 25° C., 24 hours
Procedure: The hygroscopicity test was carried out according to the European Pharmacopoeia, 5.11 Characters Section in Monographs at ambient temperature (about 25° C.) on substance “as is”.
Desiccator with saturated ammonium chloride solution was prepared as follows: to a 100 mL of water was added accurately weighed 46.3 g of ammonium chloride under mixing. The solubility of ammonium chloride in water at ambient temperature is about 41.4 g/100 mL water at 30° C. An amount of amorphous ibrutinib was placed in a glass weighing vessel with stopper (m1) and weighed (m2). The un-stoppered vessel was placed in a desiccator containing a saturated solution of ammonium chloride (80±2% relative humidity) at 25° C. for 24 hours. The weighing vessel was stoppered and weighed (m3). The percentage increase in mass was calculated according to the following formula: […]
The following Table 10 includes the standard defined hygroscopicity values according to the European Pharmacopoeia, 5.11 Characters Section in Monographs: […]

[2] = rats; cited from earlier work

Row | SMILES | degree of hygroscopicity [1] | Increase in mass % ([1]; substance as is) | Increase in mass g ([1]; m3 minus m2) | oral bioavailability [2]
1 | C=CC(=O)N1CCC[C@@H](n2nc(-c3ccc(Oc4ccccc4)cc3)c3c(N)ncnc32)C1 [amorphous ibrutinib] | slightly hygroscopic | 1.24% | 0.01077 g | 
2 | C=CC(=O)N1CCC[C@@H](n2nc(-c3ccc(Oc4ccccc4)cc3)c3c(N)ncnc32)C1 [ibrutinib, 1-[(3R)-3-[4-amino-3-(4-phenoxyphenyl)-1H-pyrazolo[3,4-d]pyrimidin-1-yl]piperidin-1-yl]prop-2-en-1-one] |  |  |  | 22.8%
